Assay results taken from patent publication US9080154B1, “Cancer stem cell survivor lines” (BOWLING GREEN STATE UNIVERSITY, priority 2012, dated 2015).

Tests used:
[1] = tested on: TE-8 cell line; experiment: surviving colonies after curcumin treatment; type: cell-based, human; settings: 60 μM curcumin, 30 hrs
Description: (§1) To select for a curcumin-surviving cell subpopulation, each of the ESCC cell lines was cultured in 100-mm dishes (1×10^5 cells/dish) with complete DMEM and incubated at 37° C. until reaching near confluency, approximately 80%. After incubation, the medium was removed and the cells were incubated in complete DMEM containing either 40 or 60 μM curcumin in dissolved in 0.2% DMSO for 30 hrs. After incubation, the medium-containing curcumin was removed and replaced with complete DMEM to allow cells that survived the treatment to grow. After the surviving cells formed colonies (normally four weeks after treatment), the colonies were counted, trypsinized, and passaged. The cell lines that developed were designated the curcumin-surviving cell lines.
(§2) According to the dose-response results, 60 μM curcumin was chosen to select for the curcumin-surviving cell line subpopulations. To establish this subpopulation, 1×10^5 cells from each ESCC lines were plated into a 100 mm tissue culture dishes and incubated until they reached near confluency. The cells were then exposed to 60 μM curcumin for 30 hrs. and the surviving colonies formed were counted. The number of colonies formed after 60 μM curcumin treatment varied among the six cell lines.

[2] = tested on: KY-10 cell line; experiment: surviving colonies after curcumin treatment; type: cell-based, human; settings: 60 μM curcumin, 30 hrs
Description: as §1, §2

[3] = tested on: KY-5 cell line; experiment: surviving colonies after curcumin treatment; type: cell-based, human; settings: 60 μM curcumin, 30 hrs
Description: as §1, §2

[4] = tested on: YES-2 cell line; experiment: surviving colonies after curcumin treatment; type: cell-based, human; settings: 30 hrs
Description: as §1, §2

[5] = tested on: YES-1 cell line; experiment: surviving colonies after curcumin treatment; type: cell-based, human; settings: 60 μM curcumin, 30 hrs
Description: as §1, §2

[6] = tested on: TE-1 cell line; experiment: surviving colonies after curcumin treatment; type: cell-based, human; settings: 60 μM curcumin, 30 hrs
Description: as §1, §2

[7] = tested on: KY-10 cell line; experiment: crystal violet assay, cells remaining after curcumin; type: cell-based, human; settings: 30 hrs, concentration that kills half the cells
Description: (§3) To determine the effect of different doses of curcumin on the ESCC lines, each cell line was plated in 24-well plates (Corning) at a density of 5×10^4 cells/well in complete DMEM, and incubated at 37° C. Curcumin (Sigma-Aldrich, St Louis, Mo.) was dissolved in dimethyl sulfoxide (DMSO) to make a stock solution of 20 mM curcumin. For each experiment, stock solution was diluted to the final concentrations (20, 30, 40, 60 and 80 μM) in complete DMEM. Twenty-four hours after plating, the wells were washed with PBS once, and 1 ml of each curcumin dosage was added (4 wells/dosage) and incubated for 30 hrs. Four other wells received complete DMEM or complete DMEM with 0.2% DMSO as controls. The inhibition of cell growth in response to curcumin treatment was assayed with the crystal violet staining assay according to a standard protocol. Briefly, the cells in each well were washed once with PBS, stained with 200 μl crystal violet in 50% ethanol (10 mg/ml), and incubated at room temperature for 10 min. The crystal violet was then removed and the wells were washed two times with distilled water, and 600 μl of 1% sodium dodecylsulfate (SDS) in water was added to each well. The plates were maintained overnight at room temperature on a shaker to dissolve the dye. Absorbance was read at 490 nm using a Wallac Victor 1420 Multilabel plate reader (Perkin Elmer, Waltham, Mass.). The background readings from the SDS solution were subtracted from each reading and the percentage of cells remaining after curcumin treatment was calculated. The results were plotted in OriginPro 7.5 (OriginLab) and analyzed by ANOVA.
(§4) To assess the sensitivity of the six human ESCC lines to curcumin, the cell lines (TE-1, TE-8, KY-5, KY-10, YES-1, and YES-2) were plated in 24-well plates for 24 hrs and then exposed to 20, 30, 40, 60, and 80 μM curcumin and to 0.2% DMSO as a control for 30 hrs. The resulting cell density was determined by standard crystal violet assay. The cell density remaining after the treatment is shown in the dose-response curve (FIG. 2). […] However, KY-5 had the highest percentage of cells remaining at the highest curcumin concentration, and the YES-2 cell line had the lowest percentage of cells remaining. When the cell lines were ranked from low to high according to their sensitivity to 60 μM curcumin the order was: KY-5, YES-1, TE-8, TE-1, KY-10, and YES-2.

[8] = tested on: KY-5 cell line; experiment: as above; type: cell-based, human; settings: 30 hrs
Description: as §3, §4

[9] = tested on: YES-2 cell line; experiment: as above; type: cell-based, human; settings: 30 hrs
Description: as §3, §4

[10] = tested on: ALDH1A1; experiment: ALDH1A1 immunocytochemistry of curcumin-surviving lines; type: cell-based, human; settings: survived 60 μM curcumin
Description: as §1
(§5) To assess the expression of the stem cell markers ALDH1A1 and CD44 in both the original ESCC cell lines and the curcumin-surviving cell lines, each line was grown on glass cover slips in complete DMEM. After two days, the cover slips were rinsed with PBS and fixed with methanol for 5 min. The cover slips were then washed three times with PBS, exposed to 0.3% hydrogen peroxide for 3 min and rinsed three times with PBS. […]
(§6) The images of cell cultures immunostained for ALDH1A1 or CD44 were analyzed with ImageJ (NIH) and OriginLab (Microcal) software. […]

[11] = tested on: RelA (p65), the major subunit of NF-κB; experiment: NF-κB level by ELISA in curcumin-surviving lines; type: cell-based, human
Description: (§7) To select for a curcumin-surviving cell subpopulation, each of the ESCC cell lines was cultured in 100-mm dishes (1×10^5 cells/dish) with complete DMEM and incubated at 37° C. until reaching near confluency, approximately 80%. After incubation, the medium was removed and the cells were incubated in complete DMEM containing either 40 or 60 μM curcumin in dissolved in 0.2% DMSO for 30 hrs. After incubation, the medium-containing curcumin was removed and replaced with complete DMEM to allow cells that survived the treatment to grow. After the surviving cells formed colonies (normally four weeks after treatment), the colonies were counted, trypsinized, and passaged. The cell lines that developed were designated the curcumin-surviving cell lines. To determine the level of ALDH1A1 and RelA (p65), the major subunit of transcription factor (NF-κB), on both curcumin-surviving cells and original cell lines, ELISA was performed as described previously. Briefly, each cell line was cultured in 96-well plates (5×10^4 cells/well) and incubated for 24 hrs at 37° C. After incubation, the wells were washed once with PBS and fixed with methanol for 5 min; the wells were then washed twice with PBS. Different dilutions of each antibody (anti-p65, Santa Cruz Biotechnology, SC-109, 200 μg/ml, and anti-ALDH1A1, Proteintech Group, 15910-1-AP, 133 μg/ml) were prepared in complete DMEM (1:50, 1:100, 1:200 and 1:500, 1:1000, 1:2000, respectively). The wells were incubated with 100 μl of each dilution (3 wells/dilution) for 2 hrs at 37° C. After incubation, the wells were washed with PBS three times and incubated with 100 μl/well of galactosidase-conjugated goat anti-rabbit secondary antibody (Southern Biotech, Birmingham, Ala.) (1:500 dilution in complete DMEM) for 2 hrs at 37° C. […] The antigen-antibody reactions were measured by determining the optical density (O.D.) at 410 nm using MR-600 microwell plate reader (Dynatech Lab Inc.). The resulting absorbance was analyzed using ANOVA.

[12] = tested on: ALDH1A1; experiment: ALDH1A1 level by ELISA in curcumin-surviving lines; type: cell-based, human; settings: all six surviving lines; t-test p<0.005
Description: as §7, with “PBS.” for “PBS. Different dilutions of each antibody (anti-p65, Santa Cruz Biotechnology, SC-109, 200 μg/ml, and anti-ALDH1A1, Proteintech Group, 15910-1-AP, 133 μg/ml) were prepared in complete DMEM (1:50, 1:100, 1:200 and 1:500, 1:1000, 1:2000, respectively). The wells were incubated with 100 μl of each dilution (3 wells/dilution) for 2 hrs at 37° C. After incubation, the wells were washed with PBS three times and incubated with 100 μl/well of galactosidase-conjugated goat anti-rabbit secondary antibody (Southern Biotech, Birmingham, Ala.) (1:500 dilution in complete DMEM) for 2 hrs at 37° C.”

[13] = tested on: CD44; experiment: CD44 immunocytochemistry of curcumin-surviving lines; type: cell-based, human
Description: as §1, §5, §6

[14] = tested on: six human ESCC lines (TE-1, TE-8, KY-5, KY-10, YES-1, YES-2); experiment: crystal violet assay, cells remaining after curcumin; type: cell-based; settings: 20-80 μM curcumin, 30 hrs; all six ESCC lines
Description: as §3, with “The inhibition of cell growth in response to curcumin treatment was assayed with the crystal violet staining assay according to a standard protocol. Briefly, the cells in each well were washed once with PBS, stained with 200 μl crystal violet in 50% ethanol (10 mg/ml), and incubated at room temperature for 10 min. The crystal violet was then removed and the wells were washed two times with distilled water, and 600 μl of 1% sodium dodecylsulfate (SDS) in water was added to each well. The plates were maintained overnight at room temperature on a shaker to dissolve the dye.” left out
To assess the sensitivity of the six human ESCC lines to curcumin, the cell lines (TE-1, TE-8, KY-5, KY-10, YES-1, and YES-2) were plated in 24-well plates for 24 hrs and then exposed to 20, 30, 40, 60, and 80 μM curcumin and to 0.2% DMSO as a control for 30 hrs. The resulting cell density was determined by standard crystal violet assay. […]

[15] = concentration that kills half the cells

With `COc1cc(/C=C/C(=O)CC(=O)/C=C/c2ccc(O)c(OC)c2)ccc1O` [curcumin] the “number of surviving colonies formed” value [1] was 17, the “number of surviving colonies formed” value [2] was 19 and the “number of surviving colonies formed” value [3] was “too many colonies to count”. For the same compound, the “number of surviving colonies formed” value ([4]; 40 μM curcumin) was 15, the “number of surviving colonies formed” value ([4]; 60 μM curcumin) was 0 and the “number of surviving colonies formed” value [5] was 25. For the same compound, the “number of surviving colonies formed” value [6] was 8, the LD50 [7] was “less than 10 μM” and the “cells remaining after curcumin” value ([8]; 80 μM curcumin, crystal violet) was 37%. The LD50 [8, 15] was 32 µM, the “attached cells remaining after curcumin” value ([9]; 80 μM curcumin, crystal violet) was 4% and the LD50 [9, 15] was 15 µM. The “percentage of high ALDH1A1-staining cells in curcumin-surviving line” value ([10]; KY-5S, original lines ranged 11.3% to 55.7%, KY-5 greatest) was 19%, the “percentage of high ALDH1A1-staining cells in curcumin-surviving line” value ([10]; TE-8S) was 0% and the “NF-κB level of curcumin-surviving lines compared to original lines” value ([11]; KY-5, YES-1 and YES-2 surviving lines, t-test p<0.005) was “lower NF-κB levels”. The “NF-κB level of curcumin-surviving line compared to original line” value ([11]; KY-10 surviving line, t-test p>0.05) was “no difference”, the “NF-κB level of curcumin-surviving lines compared to original lines” value ([11]; TE-1 and TE-8 surviving lines) was “increase of NF-κB level” and the “ALDH1A1 level of curcumin-surviving lines compared to original lines” value [12] was “lower ALDH1A1 level”. For the same compound, the “percentage of high CD44-staining cells in curcumin-surviving line” value ([13]; YES-1S, survived 60 μM curcumin, original YES-1 16%) was 6.5%, the “percentage of high CD44-staining cells in curcumin-surviving line” value ([13]; YES-2S, survived 40 μM curcumin, original YES-2 19%) was 9.2% and the reduction in cells [14] was “reduction in cells in a dosage dependent manner”.
